Source: PMC11838007, “Contribution of telacebec to novel drug regimens in a murine tuberculosis model” (Antimicrobial Agents and Chemotherapy, 2024)
In brackets after ≈: the same amount, converted by molar mass.

Tests used:
[1] = test system: Rv0678_J4 mutant; type: cell-based, Mycobacterium tuberculosis
[2] = test system: Rv0678_2 mutant; type: cell-based, Mycobacterium tuberculosis

Q: How did the MIC [1] turn out when `CCc1nc2ccc(Cl)cn2c1C(=O)NCc1ccc(N2CCC(c3ccc(OC(F)(F)F)cc3)CC2)cc1` [Telacebec, telacebec] was run?
A: Its MIC is 4 ng/mL (≈ 0.00718 µM).

Q: What about the MIC [2] of the same compound?
A: The MIC was 8 ng/mL (≈ 0.0144 µM).
